Measurements reported in patent publication US6432446B1, “Non-arrhythmogenic metabolite of oxybutynin” (Bridge Pharma, Inc., priority 2000, dated 2002).

Key:
Male guinea pigs = assay: Cardiac side effects: QTc interval of the EKG in anesthetized guinea pigs; assay type: in vivo, guinea pig; settings: intravenous infusion over 30 min
Protocol: Male guinea pigs (450-600 g) are anesthetized with freshly prepared dialurethane sodium. The jugular vein is catheterized for iv administration of test drugs and the trachea is exposed and cannulated. Subdermal electrodes are positioned for Lead II electrocardiogram recording, monitored on a Grass Polygraph recorder, set at a paper speed of 50 nmmsec. The animals are allowed to stabilize for 30 minute after completion of surgery, and three baseline EKG recordings are then made at 10-minute intervals. The animals are then given a dose of the test compound or vehicle as an intravenous inflision over 30 min. EKG recordings are used to determine QT intervals and heart rates. To compensate for variations in heart rates, QTc intervals are calculated from QT- and RR-intervals as known to those skilled in the art. Prolongation of QTc is indicative of a prolonged action potential, caused by an inhibition of the delayed rectifier potassium channel. Prolongation of QTc is the known cause of Torsades de Pointes ventricular fibrillation by drugs such as terfenadine and astemizole (now withdrawn from the market).

[1] = system: patients with conditions characterized by involuntary bladder contractions; settings: clinical studies; cited from earlier work
[2] = isomers of racemic oxybutynin; cited from earlier work
[3] = system: Strips of intestinal smooth muscle tissue
Protocol: 2. Functional Characterization of Antimuscarinic/Antispasmodic Activity.
Strips of intestinal smooth muscle tissue are removed from the body of male Hartley guinea pigs weighing 400-600 g. The strips are suspended in an oxygenated buffer of the following composition, in mM: NaCl, 133; KCl, 4.7; CaCl2, 2.5; MgSO4, 0.6; NaH2PO4, 1.3; NaHCO3, 16.3; and glucose, 7.7, or a similar balanced physiological solution. They are maintained at constant temperature. Contractions are recorded with isometric transducers (Model FT-10) on an ink-writing polygraph.
In each experiment up to seven strips are removed from a single animal, suspended in individual tissue chambers and allowed to equilibrate with the bathing solution for one hour before proceeding with the experiment.
In order to assess the viability of each tissue and to serve as a frame of reference, contractions of each strip of tissue are recorded initially in response to exposure to a tissue medium in which the NaCl was replaced by KCl to yield a concentration of 137.7 mM KCl in the medium. […] Then, leaving one strip untreated and/or one strip exposed to the test solution to serve as control tissue(s), the remaining strips each are exposed for one hour to one concentration of an antagonist. Finally, the responses to increasing concentrations of carbachol followed by exposure to 137.7 mM KCl are recorded a second time. To determine whether antagonists decrease the peak response to agonists, the peak tension developed by each strip during the second set of determinations is expressed as a percent of the peak tension developed during the first concentration-effect determination. Then, for each antagonist the resultant data are analyzed using standard statistical methodology.

[4] = drugs withdrawn from the market because of this side effect; cited from earlier work
[5] = Risk for torsades des pointes of drugs combined with oxybutynin
[6] = system: human recombinant muscarinic receptor subtypes; assay: Ligand binding studies: muscarinic receptors; settings: compared with the des-ethyl metabolite
Protocol: 1. Ligand Binding Studies: Muscarinic Receptors.
The experiments are carried out on membranes prepared from SF9 cells infected with baculovirus to express human recombinant muscarinic receptor subtypes. After incubation with the test article and the proper radioligand and washing, bound radioactivity is determnined with a liquid scintillation counter, using a commercial scintillation cocktail. The specific radioligand binding to each receptor is defined as the difference between total binding and nonspecific binding determined in the presence of an excess of unlabelled ligand. IC50 values (concentrations required to inhibit 50% of specific binding) are determined by non linear regression analysis of the competition curves. These parameters are obtained by curve fitting using Sigmaplot software.

[7] = system: benzothiazepine receptors; assay: Affinity for benzothiazepine receptors; assay type: binding; settings: compared with the des-ethyl metabolite

For `CCNCC#CCOC(=O)C(O)(c1ccccc1)C1CCCCC1` (racemic) [desethyl metabolite of oxybutynin, 4-ethylamino-2-butynyl cyclohexyl-phenylglycolate], the “prolongation of the QTc-interval of the EKG” value (Male guinea pigs) was “free from said cardiac side effect”.
In the case of `CCN(CC)CC#CCOC(=O)C(O)(c1ccccc1)C1CCCCC1` (racemic) [oxybutynin, 4-diethylamino-2-butynyl cyclohexylphenylglycolate], the bladder capacity [1] is given as “increases bladder capacity”, the “frequency of involuntary contractions of the detrusor muscle” value [1] is given as “diminishes the frequency of involuntary contractions of the detrusor muscle” and the “initial desire to void” value [1] is given as “delays the initial desire to void”. The “prolongation of the QTc-interval of the EKG” value (Male guinea pigs) was “causes a prolongation of the QTc-interval”.
In the case of `CCN(CC)CC#CCOC(=O)[C@](O)(c1ccccc1)C1CCCCC1` (single isomer, unassigned) [R(−)-isomer, R(−)-oxybutynin], the anticholinergic activity [2] is listed as “practically all of the anticholinergic activity of OXY resides in the R(−)-isomer” and the “prolongation of the QTc-interval of the EKG” value (Male guinea pigs) is listed as “cause a prolongation of the QTc-interval”.
For `CCNCC#CCOC(=O)[C@](O)(c1ccccc1)C1CCCCC1` (single isomer, unassigned) [R-isomer of the des-ethyl metabolite of oxybutynin], the “antimuscarinic / anticholinergic activity” value [3] was “potent antimuscarinic agent”.
For `CCN(CC)CC#CCOC(=O)[C@@](O)(c1ccccc1)C1CCCCC1` (single isomer, unassigned) [S(+)-isomer, S(+)-oxybutynin], the spasmolytic activity [2] is given as “direct spasmolytic activity” and the “prolongation of the QTc-interval of the EKG” value (Male guinea pigs) is given as “cause a prolongation of the QTc-interval”.
In the case of `CCNCC#CCOC(=O)[C@@](O)(c1ccccc1)C1CCCCC1` (single isomer, unassigned) [S-isomer of the des-ethyl metabolite of oxybutynin], the “antimuscarinic / anticholinergic activity” value [3] is reported as “weak anticholinergic activity” and the spasmolytic activity [3] is reported as “spasmolytic agent”.
For `COc1ccc(CCN2CCC(Nc3nc4ccccc4n3Cc3ccc(F)cc3)CC2)cc1` [astemizole], the “prolongation of QTc” value [4] is given as “found to cause prolongation of QTc”.
With `CC(=O)N1CCN(c2ccc(OCC3COC(Cn4ccnc4)(c4ccc(Cl)cc4Cl)O3)cc2)CC1` (stereo not drawn) [ketoconazole] the “risk for torsades des pointes” value [5] was “further increase the risk for torsades des pointes”.
In the case of `CC(CC(c1ccccc1)c1ccccc1)NC(C)(C)C` (stereo not drawn) [terodiline], the “prolongation of QTc” value [4] is listed as “found to cause prolongation of QTc”.
With “didesethyloxybutynin [didesethyl metabolite]” the “affinity for muscarinic receptors” value [6] was “somewhat lower affinity”, the “prolongation of the QTc-interval of the EKG” value (Male guinea pigs) was “does not prolong the QTc interval” and the “affinity for benzothiazepine receptors” value [7] was “somewhat lower affinity”.
